Values quoted from earlier work, collected in US5189064A, “Treatment of cocaine addiction” (Matrix Technologies, Inc., priority 1990, dated 1993).
Like-named read-outs stand apart in the source and are kept apart here. Square brackets hold non-standard residues; d marks the D form. Ends that are not written are not given here.

Experiments:
[1] = tested on: enkephalinase A; details: in vitro, calf brain enzyme
[2] = tested on: enkephalinase B; details: in vitro, calf brain enzyme
[3] = tryptophan injected into the bloodstream
[4] = infusion, neurological patients with depression and insomnia
[5] = tested on: healthy men; details: tryptophan 50 mg/kg, tyrosine 100 mg/kg, eight healthy men
[6] = tested on: endorphinase
[7] = biological target: T1, carboxypeptidase A (Bos taurus, UniProt P00730)
T1 sequence (P00730 111-417 limits assumed): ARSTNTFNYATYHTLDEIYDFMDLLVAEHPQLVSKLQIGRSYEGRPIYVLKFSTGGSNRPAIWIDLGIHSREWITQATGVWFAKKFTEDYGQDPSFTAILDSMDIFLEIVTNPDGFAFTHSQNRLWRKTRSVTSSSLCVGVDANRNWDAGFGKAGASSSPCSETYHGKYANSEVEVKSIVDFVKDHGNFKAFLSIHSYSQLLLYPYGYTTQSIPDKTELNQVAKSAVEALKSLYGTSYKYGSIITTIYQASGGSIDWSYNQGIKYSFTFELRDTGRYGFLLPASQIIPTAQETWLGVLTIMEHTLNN

[8] = tested on: enkephalinase
[9] = tested on: enkephalinases; details: rat intestinal mucosa
[10] = tested on: [Met]-enkephalin
[11] = tested on: [Met]-enkephalin; details: mice

[dF]-Tyr
inhibitory activity against enkephalinase A [1]: markedly enhances the inhibitory potency | inhibitory activity against enkephalinase B [2]: markedly enhances the inhibitory potency

N[C@@H](Cc1c[nH]c2ccccc12)C(=O)O [tryptophan, L-tryptophan]
level of serotonin in the brain elevated [3]: two | level of tryptophan in the brain elevated [3]: nine | elevations in cortical tryptophan levels [4]: six | pain discriminability [5]: significantly reduced pain discriminibility

N[C@H](Cc1ccccc1)C(=O)O [D-phenylalanine]
endorphinase inhibited ([6]; cortex): 18% | endorphinase inhibited ([6]; hypothalamus): 5% | endorphinase inhibited ([6]; spinal cord): 40% | endorphinase inhibited ([6]; striatum): 10% | inhibitory activity against enkephalinase A [1]: much less effective | inhibitory activity against enkephalinase B [2]: much less effective | inhibition of carboxypeptidase A [7]: inhibit carboxypeptidase A | enkephalinase inhibited ([8]; cortex): 60% | enkephalinase inhibited ([8]; hypothalamus): 80% | enkephalinase inhibited ([8]; spinal cord): 84% | enkephalinase inhibited ([8]; striatum): 78% | degradation of (D-Ala2-D-Leu5) enkephalin (DAPLE) and Tyr-D-Ala-Gly-Phe (TAAGP) [9]: significantly reduced degradation | CNS [Met]-enkephalin level ([10]; six days later): remained high | CNS increases of [Met]-enkephalin ([10]; within 90 minutes following DPA injection): tripled

O=C(O)CCc1ccccc1 [hydrocinnamic acid]
[Met]-enkephalin in the brain [11]: increases of [Met]-enkephalin

N[C@@H](Cc1ccc(O)cc1)C(=O)O [tyrosine, L-tyrosine]
pain discriminability [5]: not
